pIC50: −log10 of the molar value.

The target in the assay is T1, purified HDAC6 (Homo sapiens, UniProt Q9UBN7).
T1 construct: purchased Cayman Chemical
T1 sequence (Q9UBN7 1-1215): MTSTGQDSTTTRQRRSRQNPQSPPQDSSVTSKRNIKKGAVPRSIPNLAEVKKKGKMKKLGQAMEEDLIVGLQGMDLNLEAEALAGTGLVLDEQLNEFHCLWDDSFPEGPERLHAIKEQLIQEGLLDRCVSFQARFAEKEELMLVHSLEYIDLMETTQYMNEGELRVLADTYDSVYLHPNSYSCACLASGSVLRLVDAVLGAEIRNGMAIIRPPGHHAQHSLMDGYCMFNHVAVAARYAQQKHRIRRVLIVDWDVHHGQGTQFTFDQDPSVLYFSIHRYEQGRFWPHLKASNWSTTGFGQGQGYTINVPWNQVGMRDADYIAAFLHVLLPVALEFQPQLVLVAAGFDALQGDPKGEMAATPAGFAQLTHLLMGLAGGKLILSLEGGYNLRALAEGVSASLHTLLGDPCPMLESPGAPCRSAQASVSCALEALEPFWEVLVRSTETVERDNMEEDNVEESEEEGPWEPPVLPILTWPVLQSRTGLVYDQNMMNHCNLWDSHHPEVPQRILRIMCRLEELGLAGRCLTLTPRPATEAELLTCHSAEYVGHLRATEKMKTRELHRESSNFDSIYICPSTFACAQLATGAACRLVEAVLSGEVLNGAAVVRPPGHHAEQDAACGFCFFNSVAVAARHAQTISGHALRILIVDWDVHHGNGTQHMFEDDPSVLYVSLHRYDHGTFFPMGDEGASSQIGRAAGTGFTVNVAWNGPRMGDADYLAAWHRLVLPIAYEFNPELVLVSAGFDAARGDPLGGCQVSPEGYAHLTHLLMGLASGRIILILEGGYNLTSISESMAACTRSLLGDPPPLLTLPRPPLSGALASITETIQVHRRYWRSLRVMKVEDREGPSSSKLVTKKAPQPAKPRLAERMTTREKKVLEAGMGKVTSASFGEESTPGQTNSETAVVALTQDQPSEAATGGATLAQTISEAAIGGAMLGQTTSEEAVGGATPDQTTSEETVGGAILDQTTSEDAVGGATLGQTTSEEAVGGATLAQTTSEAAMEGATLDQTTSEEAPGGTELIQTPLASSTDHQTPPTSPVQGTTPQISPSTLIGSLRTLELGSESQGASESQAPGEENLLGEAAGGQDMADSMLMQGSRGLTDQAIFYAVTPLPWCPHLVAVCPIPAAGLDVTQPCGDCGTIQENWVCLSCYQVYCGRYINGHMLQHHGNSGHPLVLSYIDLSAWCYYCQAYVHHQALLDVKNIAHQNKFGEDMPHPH
The assay can be described thus: Fluorogenic HDAC inhibition assay, HDAC6. The conditions noted are these: purified HDAC6, fluorometric substrate. Type of assay: biochemical. On the procedure:
The hybrids were assessed to determine their HDACi and VDR agonist activity as well as their antiproliferative properties relative to DK-406. HDACi activity was assessed in vitro using an acetylated lysine substrate that releases a fluorescent reporter upon HDACi deacetylation and subsequent trypsin digestion. Increasing sidechain length of pyrimidine hybrids enhanced the potency of HDAC6 inhibition, with several compounds inhibiting HDAC6 with a sub-micromolar IC50, similar to that of DK-406 (Fig. 4a). […] Next, we analyzed the effects of compounds on levels of H3K9 and H3K27 acetylation in 4TO7 cells, which are controlled by class I HDACs[29],[30]. […] We also tested the capacity of analogues to induce tubulin acetylation, controlled by class II enzyme HDAC6[32], in 4TO7 cells. Based on their relative efficacy in cytotoxicity assays (see below, Fig. 5c,d), we used 10^–5 M DK-406 and 10^–6 M AM-193 for these studies.
Figure 4 (a) Results of in vitro assays for inhibition of purified HDAC2 and HDAC6 by DK-406 and heterocyclic hybrids as measured by inhibition of deacetylation of a fluorometric substrate (see Methods for details). (b–d) Left: Western blotting analysis of histone 3 lysine 9 (H3K9; b), H3K27 (c), or acetylated tubulin (d), levels in 4TO7 cells treated with ligands for 6 h. Representative western-blots are shown from at least 3 biological replicates. Right: Graphs representing the average of the replicates, bars are mean ± SD. Each condition was compared to control. *: p ≤ 0.05, **: p ≤ 0.01, ***: p ≤ 0.001, ****: p ≤ 0.0001, ns: not significant. TEXT PRINTED IN THE PICTURE: (a) DK-406: HDAC6 IC50 (μM): 0.6; HDAC2 IC50 (μM): 0.5 | (a) AM-155: HDAC6 IC50 (μM): 2.8; HDAC2 IC50 (μM): 1.7 | (a) AM-171: HDAC6 IC50 (μM): 0.5; HDAC2 IC50 (μM): 9.6 | (a) AM-172: HDAC6 IC50 (μM): 0.3; HDAC2 IC50 (μM): 7.7 | (a) AM-191: HDAC6 IC50 (μM): 1.9; HDAC2 IC50 (μM): 8.1 | (a) AM-192: HDAC6 IC50 (μM): 0.5; HDAC2 IC50 (μM): 6.5 | (a) AM-193: HDAC6 IC50 (μM): 0.3; HDAC2 IC50 (μM): 7.2
Purified HDAC2 and HDAC6 were purchased from Cayman Chemical. Boc-Lys(Ac)-7-amino-4-methylcoumarin (BocLys(Ac)-AMC) was used as substrate for the HDAC assays. Substrate solution was prepared as follow: Boc(Lys-Ac)-AMC was dissolved in DMSO and diluted with HDAC buffer (15 mM tris–HCl [pH 8.1], 250 μM EDTA, 250 mM NaCl, 10% glycerol) to give 1 mM solutions containing 1.7% DMSO. Trypsin was used to stop the reaction, releasing free AMC. The trypsin solution was prepared as follow: trypsin was dissolved in HDAC buffer to give a concentration of 10 mg/mL. Release of AMC was monitored by measuring the fluorescence at 460 nm (lex = 390 nm) with a microplate reader (SpectraMax Gemini from Molecular Devices) at 37 °C. The AMC signals were recorded against a blank with buffer, substrate and trypsin but without the enzyme. All experiments were carried out at least in triplicate.
For HDAC inhibition assays, inhibitor diluted in 50 μL of HDAC buffer was mixed with 10 μL of diluted enzyme solution in HDAC buffer at room temperature. The HDAC reaction was started by adding 40 μL of substrate solution in HDAC buffer followed by 60 min of incubation with stirring at 37 °C. The reaction was stopped by adding 100 μL of trypsin solution. After a 30 min incubation with stirring at 37 °C, the release of AMC was monitored by measuring the fluorescence.
Take `CCC(CC)(c1ccc(OCCCCCC(=O)NO)cc1)c1ccc(OCC(O)C(C)(C)C)c(C)n1` (stereo not shown) [AM-193]: the negative-log IC50 (pIC50) is 6.52. Turning to `CCC(CC)(c1ccc(OCC(O)C(C)(C)C)c(C)c1)c1ccc(OCC(=O)NO)cn1` (stereo not shown) [AM-155], the negative-log IC50 (pIC50) was 5.55. Compared with the last molecule, the pIC50 is 0.97 log units lower. `CCC(CC)(c1ccc(C(=O)NCCCCCC(=O)NO)cc1)c1ccc(OCC(O)C(C)(C)C)c(C)c1` (stereo not shown) [DK-406] gave a pIC50 of 6.22. The result for `CCC(CC)(c1ccc(OCC(O)C(C)(C)C)c(C)c1)c1ccc(OCCCC(=O)NO)cn1` (stereo not shown) [AM-171] reads 6.30.

The values above are taken from paper PMC9038752, “Molecular mechanisms of bifunctional vitamin D receptor agonist-histone deacetylase inhibitor hybrid molecules in triple-negative breast cancer” (Scientific Reports, 2022).
